Assay results from US20240190855A1 (Relay Therapeutics, Inc., priority 2021, published 2024).

Target: T1, CDK2/Cyclin E complex (Homo sapiens, UniProt P24941)
T1 construct: purchased Eurofins 14-475
Assay: CDK2/Cyclin E fluorescence-based microfluidic mobility shift assay (CDK2 Biochemical Caliper Assay)
Conditions: read-out: Biochemical CDK2/CyclinE Caliper IC50
Protocol: Compounds of the present disclosure were tested in a CDK2/Cyclin E fluorescence-based microfluidic mobility shift assay (PerkinElmer).
The active wild type CDK2/Cyclin E complex was purchased from Eurofins (14-475). Compound stocks were prepared in DMSO and were serially diluted into 11 concentrations by 3-fold dilution. […] Compounds were incubated in the presence of CDK2/Cyclin E complex and ATP for 30 minutes at room temperature. Catalytic reaction was initiated with the addition of 5 uL of a 4× peptide solution containing 6 uM fluorescently label substrate peptide, FL Peptide 18 (aa sequence 5-FAM-QSPKKG, PerkinElmer, 760362) in 1× reaction buffer.
The final reaction components were 0.1 nM CDK2/Cyclin E, 2000 uM ATP and 1.5 uM FL Peptide 18 and 1% DMSO. Reactions were incubated RT for 20 hr and terminated with 75 uL of a stopping solution containing 0.5 M EDTA. Samples were analyzed using a LabChip EZ reader (PerkinElmer).

Row | Compound | IC50 [nM]
1 | COCc1cc2c(Nc3cc([C@H]4C[C@@H](OC(=O)NC5(c6cnn(C)c6)CC5)CO4)[nH]n3)nccn2n1 [Example 678] | 100 to 250
2 | Cc1cnnc(Nc2cc(C3CCCC3)[nH]n2)c1C(=O)O [Example 856] | 1000 to 100000
3 | COCc1cc(C(=O)Nc2cc([C@H]3CC[C@@H](c4ccc(C)cn4)C3)[nH]n2)n(C)n1 (single isomer, unassigned) [Example 597] | 1000 to 100000
4 | COCc1cc(C(=O)Nc2cc([C@H]3CC[C@@H](Oc4cccnc4C)C3)[nH]n2)n(C)n1 (single isomer, unassigned) [Example 385] | 1000 to 100000
5 | COCc1cc2c(Nc3cc([C@H]4C[C@@H](OC(=O)NC(C)(C)C#N)CO4)[nH]n3)nccn2n1 [Example 717] | ≤ 100
6 | COCc1cc2c(Nc3cc([C@H]4C[C@@H](OC(=O)NC56CC(F)(C5)C6)CO4)[nH]n3)nccn2n1 [Example 710] | ≤ 100
7 | CC(C)n1cnnc1O[C@H]1CO[C@@H](c2cc(Nc3nccc4nccn34)n[nH]2)C1 [Example 749] | 100 to 250
8 | Cc1ccc(O[C@@H]2CC[C@H](c3cc(NC(=O)Cc4cc(C)no4)n[nH]3)C2)cn1 (single isomer, unassigned) [Example 357] | 1000 to 100000
9 | C[C@@H](NC(=O)O[C@@H]1CO[C@H](c2cc(NC(=O)c3cc(OCC(F)F)nn3C)n[nH]2)C1)C1CC1 [Example 909] | ≤ 100
10 | Cc1cc(CC(=O)Nc2cc([C@@H]3CC[C@H](Cc4nncn4C(C)C)C3)[nH]n2)on1 (single isomer, unassigned) [Example 371] | 1000 to 100000
11 | COCc1cc(C(=O)Nc2cc([C@H]3C[C@@H](OC)[C@H](OC(=O)NC(C)C)C3)[nH]n2)n(C)n1 (single isomer, unassigned) [Example 570] | 1000 to 100000
12 | Cc1cc(CC(=O)Nc2cc([C@@H]3CC[C@H](OC(=O)CC(C)C)C3)[nH]n2)on1 (single isomer, unassigned) [Example 353] | ≤ 100
13 | CC(C)c1nc(Nc2cc(C3CCCC3)[nH]n2)c2cc[nH]c2n1 [Example 864] | 250 to 1000
14 | O=C1COc2ncnc(Nc3cc(C4CCCC4)[nH]n3)c2N1 [Example 831] | 1000 to 100000
15 | c1cncc(O[C@H]2CC[C@@H](c3cc(Nc4nccn5nccc45)n[nH]3)C2)c1 (single isomer, unassigned) [Example 505] | ≤ 100
16 | C[C@H](NC(=O)O[C@@H]1CO[C@H](c2cc(NC(=O)c3cc(OCC(F)F)nn3C)n[nH]2)C1)C1CC1 [Example 919] | ≤ 100
17 | Cn1nc(COC(F)(F)F)cc1C(=O)Nc1cc([C@@H]2C[C@H](OC(=O)NC34CC(C3)C4)CO2)[nH]n1 [Example 776] | ≤ 100
18 | Cc1cc(CC(=O)Nc2cc([C@@H]3CC[C@@H](O)C3)[nH]n2)on1 (single isomer, unassigned) [Example 376] | 1000 to 100000
19 | Cc1cc(CC(=O)Nc2cc([C@@H]3CC[C@H](NC(=O)[C@@H](O)C(C)C)C3)[nH]n2)on1 (single isomer, unassigned) [Example 483] | 250 to 1000
20 | CC1(C)NC(=O)c2ccc(Nc3cc(C4CCCC4)[nH]n3)nc21 [Example 796] | ≤ 100
21 | COCc1cc2c(Nc3cc([C@@H]4C[C@H](OC(=O)NC(C)(C)C)CO4)[nH]n3)nccn2n1 (single isomer, unassigned) [Example 618] | ≤ 100
22 | Cc1cc(CC(=O)Nc2cc([C@@H]3CC[C@H](N(C)C(=O)NC(C)C)C3)[nH]n2)on1 (single isomer, unassigned) [Example 103] | 1000 to 100000
23 | COCc1cc(C(=O)Nc2cc([C@H]3C[C@@H](COc4cn[nH]c4C(C)(C)C)C3)[nH]n2)n(C)n1 [Example 622] | ≤ 100
24 | Cc1cc2c(c(Nc3cc(C4CCCC4)[nH]n3)n1)C(=O)NC2=O [Example 792] | 1000 to 100000

Now from value to compound:

Row | IC50 [nM] | Compound
25 | ≤ 100 | COCc1cc(C(=O)Nc2cc([C@@H]3CC[C@H](c4nccc(C(C)C)n4)C3)[nH]n2)n(C)n1 (single isomer, unassigned) [Example 610]
26 | 250 to 1000 | Cc1cc(CC(=O)Nc2cc([C@H]3CC[C@@H](Oc4ccccc4C(C)C)C3)[nH]n2)on1 (single isomer, unassigned) [Example 389]
27 | ≤ 100 | Cn1nc(COCC(F)(F)F)cc1C(=O)Nc1cc([C@H]2C[C@@H](OC(=O)NC3(C)CC3)CO2)[nH]n1 [Example 771]
28 | ≤ 100 | CC(C)NC(=O)O[C@H]1CC[C@@H](c2cc(Nc3ncnc4ncccc34)n[nH]2)C1 (single isomer, unassigned) [Example 401]
29 | 1000 to 100000 | Cc1cc(CC(=O)Nc2cc(C3CCCCC3)[nH]n2)on1 [Example 48]
30 | ≤ 100 | COCc1cc2c(Nc3cc([C@@H]4C[C@H](OC(=O)NC(C)C)CO4)[nH]n3)nccn2n1 [Example 545]
31 | ≤ 100 | COCc1cc2c(Nc3cc([C@H]4C[C@@H](OC(=O)N[C@H](C)C5CC5)CO4)[nH]n3)nccn2n1 [Example 655]
32 | 1000 to 100000 | Cc1cc(CC(=O)Nc2cc(-c3ccccc3)[nH]n2)on1 [Example 62]
33 | ≤ 100 | Cn1nc(OCC(F)(F)F)cc1C(=O)Nc1cc([C@@H]2C[C@H](OC(=O)NC34CC(C3)C4)CO2)[nH]n1 [Example 908]
34 | 1000 to 100000 | COCc1cc(C(=O)Nc2cc([C@@H]3CC[C@H](c4cc(C(C)C)ncn4)C3)[nH]n2)n(C)n1 (single isomer, unassigned) [Example 602]
35 | ≤ 100 | CC1(NC(=O)O[C@H]2CO[C@@H](c3cc(Nc4nccn5nc(C(F)F)cc45)n[nH]3)C2)CC1 [Example 769]
36 | ≤ 100 | CC1(NC(=O)O[C@H]2CO[C@@H](c3cc(Nc4ccnc5nccn45)n[nH]3)C2)CC1 [Example 748]
37 | ≤ 100 | C[C@H]1CC[C@H](C)N1C(=O)OC[C@H]1C[C@@H](c2cc(Nc3ccc4c(n3)C(C)(C)NC4=O)n[nH]2)C1 (racemic) [Example 593]
38 | ≤ 100 | COCc1cc2c(Nc3cc([C@@H]4C[C@H](OC(=O)NC5(C)CC5)CO4)[nH]n3)nccn2n1 [Example 620]
39 | ≤ 100 | CC1(NC(=O)O[C@H]2CO[C@@H](c3cc(Nc4ccc5nccn5n4)n[nH]3)C2)CC1 [Example 732]
40 | 1000 to 100000 | COCc1cc(C(=O)Nc2cc([C@H]3CC[C@H](c4cccc(C(C)C)n4)C3)[nH]n2)n(C)n1 (single isomer, unassigned) [Example 607]
41 | ≤ 100 | CC(C)c1ccnnc1O[C@@H]1CO[C@H](c2cc(Nc3nccc4ncsc34)n[nH]2)C1 [Example 524]
42 | 1000 to 100000 | COCc1cc(C(=O)Nc2cc([C@H]3C[C@H](CC(=O)NC(C)C)C3)[nH]n2)n(C)n1 [Example 361]
43 | 1000 to 100000 | COc1cnc2ncnc(Nc3cc(C4CCCC4)[nH]n3)c2c1 [Example 865]
44 | 1000 to 100000 | COCc1cc(C(=O)Nc2cc([C@@H]3C[C@@H](OC)[C@H](OC(=O)NC(C)C)C3)[nH]n2)n(C)n1 (single isomer, unassigned) [Example 568]
45 | 100 to 250 | CC(C)NC(=O)O[C@@H]1CC[C@H](c2cc(NC(=O)CN(C)c3ncnc4nc[nH]c34)n[nH]2)C1 (single isomer, unassigned) [Example 374]
46 | 1000 to 100000 | COCc1cc2c(Nc3cc([C@H]4CC[C@@H](Oc5cccnc5C)C4)[nH]n3)nccn2n1 (single isomer, unassigned) [Example 511]
47 | 1000 to 100000 | COCc1cc(C(=O)Nc2cc([C@H]3C[C@H](COc4cccnc4)C3)[nH]n2)n(C)n1 [Example 562]
48 | ≤ 100 | COCc1cc2c(Nc3cc([C@H]4C[C@@H](COc5[nH]ncc5C(C)(C)C)C4)[nH]n3)nccn2n1 [Example 708]
